These results are taken from US8486398B2, “Anticoagulant antidotes comprising antibodies that bind dabigatran and/or related compounds” (Boehringer Ingelheim International GmbH, priority 2010, dated 2013).

SMILES strings stand for the structures. Where “and” joins values, the source holds several entries; their conditions need not be identical. Identical values can stand only once. Like-named read-outs stand apart in the source and are kept apart here.

For experiment [1] the following is noted: compared with dabigatran; cited from earlier work.
The next experiment concerns the target thrombin (Bos taurus, UniProt P00735). The method, then: Briefly human plasma is obtained by taking whole blood into 3.13% sodium citrate. This is then centrifuged to obtain platelet free plasma and transferred to a separate tube and frozen until required on the day of the assay. Plasma is thawed at 37° C. on the day of the assay.
The thrombin clotting time is performed as follows. First thrombin is diluted to manufacturer's specification (3 IU/mL thrombin) in the buffer provided (Dade Behring Test kit) and prewarmed to 37° C. It is used within 2 hrs of being prepared. All assays were performed on a commercially available CL4 clotting machine (Behnk Electronics, Norderstadt, Germany). Fifty μL of plasma is pipetted into provided cuvettes with a magnetic stirrer and allowed to stir for 2 min in the well preheated to 37° C. in the CL4 machine. At this point 100 μL of the thrombin solution is added and the time required for the plasma sample to clot is recorded automatically by the CL4. Dabigatran is preincubated for 5 min in plasma in the provided cuvettes, before adding thrombin and starting the measurement. If antibody is also tested (up 50 μL of stock solution), there is a further 5 minute incubation at 37° C. before beginning clotting (i.e. 10 min total incubation with dabigatran, 5 min total incubation with antibody and then clotting is initiated with thrombin).

As for `Cn1c(CNc2ccc(C(=N)N)cc2)nc2cc(C(=O)N(CCC(=O)OC3OC(C(=O)O)C(O)C(O)C3O)c3ccccn3)ccc21` (stereo not drawn) [1-O-acylglucuronide], the “prolongation of the activated partial thromboplastin time” value in experiment [1] is reported as “equipotent prolongation of the activated partial thromboplastin time compared with dabigatran”.

Turning to `Cn1c(CNc2ccc(C(=N)N)cc2)nc2cc(C(=O)N(CCC(=O)O)c3ccccn3)ccc21` [dabigatran, N-[2-(4-Amidinophenylaminomethyl)-1-methyl-1H-benzimidazol-5-ylcarbonyl]-N-(2-pyridyl)-beta-alanine], the thrombin clotting time was 51 s and 63.7 s at thrombin (200 nM dabigatran preincubated with human plasma, baseline 10.9-11 seconds); 111.7 s at thrombin (500 nM dabigatran, human plasma, baseline 10.9 seconds). The “elevation in clotting time over baseline” value at thrombin (200 nM dabigatran, human plasma) is recorded as about 5 fold. Further, the “increase in clotting time over baseline” value on thrombin (500 nM dabigatran, human plasma) was about 10 fold. On thrombin (increasing concentrations of dabigatran, human plasma), the “concentration dependence of thrombin clotting time” value is on record as “concentration-dependent increase in the thrombin clotting time”.
